# Reference: the kinase profiling compilation of Christmann-Franck et al. (2016)
# Tests used:
# Test in all cases: KINOMEscan competition binding
# Details in all cases: compound 1.0 µM
# [1] = biological target: ACVR1 (human) (UniProt Q04771)
# [2] = biological target: ACVR1B (human) (UniProt P36896)
# [3] = biological target: AKT3 (human) (UniProt Q9Y243)
# [4] = biological target: BLK (human) (UniProt P51451)
# [5] = biological target: BTK (human) (UniProt Q06187)
# [6] = biological target: CSF1R (human) (UniProt P07333)
# [7] = biological target: CSNK1D (human) (UniProt P48730)
# [8] = biological target: CSNK1G1 (human) (UniProt Q9HCP0)
# Chain of CSNK1G1 (human) (Q9HCP0 whole entry, looked up): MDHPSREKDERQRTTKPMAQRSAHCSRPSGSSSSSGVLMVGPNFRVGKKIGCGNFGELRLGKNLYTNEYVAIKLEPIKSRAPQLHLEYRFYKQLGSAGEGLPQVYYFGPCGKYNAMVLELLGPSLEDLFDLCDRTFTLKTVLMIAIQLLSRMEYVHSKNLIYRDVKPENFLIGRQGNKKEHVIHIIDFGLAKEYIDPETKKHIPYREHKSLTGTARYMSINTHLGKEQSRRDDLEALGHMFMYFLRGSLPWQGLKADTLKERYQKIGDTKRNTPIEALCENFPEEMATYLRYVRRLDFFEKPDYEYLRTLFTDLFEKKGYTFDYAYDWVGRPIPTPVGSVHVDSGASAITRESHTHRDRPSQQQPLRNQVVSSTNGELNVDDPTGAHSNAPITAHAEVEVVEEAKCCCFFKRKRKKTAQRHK
# [9] = biological target: CSNK1G3 (human) (UniProt Q9Y6M4)
# [10] = biological target: DAPK1 (human) (UniProt P53355)
# [11] = biological target: DAPK2 (human) (UniProt Q9UIK4)
# [12] = test system: EGFR (human), P00533 [A750P; 747-749 del]
# [13] = test system: EIF2AK4 KD2 (human), Q9P2K8 [S808G]
# [14] = biological target: FGR (human) (UniProt P09769)
# [15] = test system: FLT3 (human), P36888 [D835Y]
# [16] = test system: FLT3 (human), P36888 [ITD]
# [17] = biological target: FRK (human) (UniProt P42685)
# [18] = biological target: HCK (human) (UniProt P08631)
# Chain of HCK (human) (P08631 whole entry, looked up): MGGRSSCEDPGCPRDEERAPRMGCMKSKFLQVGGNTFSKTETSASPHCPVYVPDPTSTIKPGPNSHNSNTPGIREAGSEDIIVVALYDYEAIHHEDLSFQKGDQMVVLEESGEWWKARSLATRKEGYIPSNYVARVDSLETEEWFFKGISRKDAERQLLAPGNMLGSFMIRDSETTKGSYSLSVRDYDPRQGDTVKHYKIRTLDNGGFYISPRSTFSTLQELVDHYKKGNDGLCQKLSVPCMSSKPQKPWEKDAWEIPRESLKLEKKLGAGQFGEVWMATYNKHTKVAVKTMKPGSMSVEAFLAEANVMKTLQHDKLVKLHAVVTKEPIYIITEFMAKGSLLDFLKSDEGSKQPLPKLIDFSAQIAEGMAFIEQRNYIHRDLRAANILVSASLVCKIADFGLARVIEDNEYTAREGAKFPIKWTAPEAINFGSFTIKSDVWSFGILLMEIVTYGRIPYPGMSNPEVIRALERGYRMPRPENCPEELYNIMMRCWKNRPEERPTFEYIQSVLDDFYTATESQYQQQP
# [19] = biological target: MAP2K1 (human) (UniProt Q02750)
# Chain of MAP2K1 (human) (Q02750 whole entry, looked up): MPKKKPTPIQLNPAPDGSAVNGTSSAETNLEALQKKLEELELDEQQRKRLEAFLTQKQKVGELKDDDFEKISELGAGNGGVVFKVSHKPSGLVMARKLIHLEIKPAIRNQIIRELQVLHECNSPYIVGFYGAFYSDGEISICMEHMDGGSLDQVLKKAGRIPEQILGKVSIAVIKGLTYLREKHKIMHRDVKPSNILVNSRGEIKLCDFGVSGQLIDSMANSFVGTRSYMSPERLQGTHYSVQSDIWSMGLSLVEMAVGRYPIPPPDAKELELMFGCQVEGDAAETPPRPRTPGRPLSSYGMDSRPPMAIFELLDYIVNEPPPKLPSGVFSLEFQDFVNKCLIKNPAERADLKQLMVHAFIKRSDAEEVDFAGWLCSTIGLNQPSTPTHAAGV
# [20] = biological target: MAP3K10 (human) (UniProt Q02779)
# [21] = biological target: MAPK4 (human) (UniProt P31152)
# [22] = biological target: MKNK1 (human) (UniProt Q9BUB5)
# [23] = biological target: MYLK2 (human) (UniProt Q9H1R3)
# [24] = biological target: MYLK4 (human) (UniProt Q86YV6)
# [25] = test system: PIK3CA (human), P42336 [Q546K]
# Chain of PIK3CA (human), P42336 [Q546K] (P42336 whole entry Q546K, looked up): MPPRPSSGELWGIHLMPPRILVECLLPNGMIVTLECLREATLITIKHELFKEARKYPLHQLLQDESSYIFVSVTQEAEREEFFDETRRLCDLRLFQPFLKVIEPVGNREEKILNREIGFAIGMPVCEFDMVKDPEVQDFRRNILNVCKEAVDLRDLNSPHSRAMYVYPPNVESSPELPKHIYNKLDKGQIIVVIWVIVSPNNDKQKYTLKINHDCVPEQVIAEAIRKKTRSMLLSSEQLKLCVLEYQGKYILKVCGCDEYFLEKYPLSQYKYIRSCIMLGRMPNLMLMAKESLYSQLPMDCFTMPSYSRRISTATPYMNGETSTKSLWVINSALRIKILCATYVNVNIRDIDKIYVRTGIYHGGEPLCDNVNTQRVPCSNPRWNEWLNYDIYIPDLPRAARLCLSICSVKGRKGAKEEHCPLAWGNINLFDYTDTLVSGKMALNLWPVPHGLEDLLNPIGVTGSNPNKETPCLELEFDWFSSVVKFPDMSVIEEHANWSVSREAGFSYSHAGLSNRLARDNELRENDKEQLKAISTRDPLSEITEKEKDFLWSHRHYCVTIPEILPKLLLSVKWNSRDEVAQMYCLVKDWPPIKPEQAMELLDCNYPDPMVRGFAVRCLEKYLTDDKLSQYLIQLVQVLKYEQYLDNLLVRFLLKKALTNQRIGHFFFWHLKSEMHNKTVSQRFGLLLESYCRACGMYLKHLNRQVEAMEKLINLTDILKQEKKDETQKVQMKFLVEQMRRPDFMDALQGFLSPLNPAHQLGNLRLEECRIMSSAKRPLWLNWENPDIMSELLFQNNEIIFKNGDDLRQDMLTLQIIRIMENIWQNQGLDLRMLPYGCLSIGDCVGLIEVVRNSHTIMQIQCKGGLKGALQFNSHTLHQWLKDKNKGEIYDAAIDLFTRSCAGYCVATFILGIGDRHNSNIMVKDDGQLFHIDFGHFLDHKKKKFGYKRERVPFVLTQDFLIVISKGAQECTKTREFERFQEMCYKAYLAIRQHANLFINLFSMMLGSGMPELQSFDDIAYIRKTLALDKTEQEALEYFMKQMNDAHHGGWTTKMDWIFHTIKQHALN
# [26] = biological target: PIK3CG (human) (UniProt P48736)
# [27] = biological target: PIM1 (human) (UniProt P11309)
# Chain of PIM1 (human) (P11309 whole entry, looked up): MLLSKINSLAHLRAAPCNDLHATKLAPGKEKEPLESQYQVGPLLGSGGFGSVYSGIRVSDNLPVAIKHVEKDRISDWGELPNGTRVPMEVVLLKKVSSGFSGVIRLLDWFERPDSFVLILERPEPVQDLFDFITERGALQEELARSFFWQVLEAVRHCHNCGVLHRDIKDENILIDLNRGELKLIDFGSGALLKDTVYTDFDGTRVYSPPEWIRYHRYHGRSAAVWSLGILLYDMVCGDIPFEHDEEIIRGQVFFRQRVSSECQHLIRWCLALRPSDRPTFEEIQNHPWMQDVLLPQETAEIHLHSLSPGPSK
# [28] = biological target: PIP4K2C (human) (UniProt Q8TBX8)
# [29] = biological target: PLK4 (human) (UniProt O00444)
# [30] = biological target: PRKACA (human) (UniProt P17612)
# [31] = biological target: PRKCH (human) (UniProt P24723)
# [32] = biological target: PRKD2 (human) (UniProt Q9BZL6)
# [33] = biological target: PRKG1 (human) (UniProt Q13976)
# [34] = biological target: RET (human) (UniProt P07949)
# Chain of RET (human) (P07949 whole entry, looked up): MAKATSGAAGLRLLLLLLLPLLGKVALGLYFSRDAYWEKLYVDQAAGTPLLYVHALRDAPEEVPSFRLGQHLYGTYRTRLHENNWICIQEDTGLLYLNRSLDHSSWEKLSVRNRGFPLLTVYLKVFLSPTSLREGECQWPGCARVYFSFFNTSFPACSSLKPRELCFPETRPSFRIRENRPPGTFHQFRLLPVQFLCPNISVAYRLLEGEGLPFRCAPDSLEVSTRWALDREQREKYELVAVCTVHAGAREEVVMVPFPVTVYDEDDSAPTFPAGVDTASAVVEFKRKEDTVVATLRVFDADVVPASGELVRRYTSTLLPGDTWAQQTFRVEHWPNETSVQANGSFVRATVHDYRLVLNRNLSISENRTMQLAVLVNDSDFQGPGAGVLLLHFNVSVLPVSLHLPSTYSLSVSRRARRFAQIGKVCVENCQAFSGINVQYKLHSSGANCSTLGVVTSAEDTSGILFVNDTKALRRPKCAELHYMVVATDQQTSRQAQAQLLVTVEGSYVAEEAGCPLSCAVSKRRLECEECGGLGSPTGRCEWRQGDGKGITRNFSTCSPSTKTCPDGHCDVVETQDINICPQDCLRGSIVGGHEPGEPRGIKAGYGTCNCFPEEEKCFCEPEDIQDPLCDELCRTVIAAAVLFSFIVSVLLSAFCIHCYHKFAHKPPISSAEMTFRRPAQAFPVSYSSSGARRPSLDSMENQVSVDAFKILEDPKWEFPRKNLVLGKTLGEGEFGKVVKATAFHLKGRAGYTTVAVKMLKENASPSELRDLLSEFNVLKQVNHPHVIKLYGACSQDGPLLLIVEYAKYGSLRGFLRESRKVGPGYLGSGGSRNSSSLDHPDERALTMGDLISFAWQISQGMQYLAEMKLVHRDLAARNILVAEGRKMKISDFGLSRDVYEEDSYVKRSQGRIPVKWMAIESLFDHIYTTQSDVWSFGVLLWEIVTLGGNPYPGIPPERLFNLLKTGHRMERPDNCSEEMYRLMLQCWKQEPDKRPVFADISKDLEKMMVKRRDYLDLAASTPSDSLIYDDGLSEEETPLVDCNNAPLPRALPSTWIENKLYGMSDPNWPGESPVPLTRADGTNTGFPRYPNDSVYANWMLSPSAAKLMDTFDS
# [35] = biological target: RIPK1 (human) (UniProt Q13546)
# Chain of RIPK1 (human) (Q13546 whole entry, looked up): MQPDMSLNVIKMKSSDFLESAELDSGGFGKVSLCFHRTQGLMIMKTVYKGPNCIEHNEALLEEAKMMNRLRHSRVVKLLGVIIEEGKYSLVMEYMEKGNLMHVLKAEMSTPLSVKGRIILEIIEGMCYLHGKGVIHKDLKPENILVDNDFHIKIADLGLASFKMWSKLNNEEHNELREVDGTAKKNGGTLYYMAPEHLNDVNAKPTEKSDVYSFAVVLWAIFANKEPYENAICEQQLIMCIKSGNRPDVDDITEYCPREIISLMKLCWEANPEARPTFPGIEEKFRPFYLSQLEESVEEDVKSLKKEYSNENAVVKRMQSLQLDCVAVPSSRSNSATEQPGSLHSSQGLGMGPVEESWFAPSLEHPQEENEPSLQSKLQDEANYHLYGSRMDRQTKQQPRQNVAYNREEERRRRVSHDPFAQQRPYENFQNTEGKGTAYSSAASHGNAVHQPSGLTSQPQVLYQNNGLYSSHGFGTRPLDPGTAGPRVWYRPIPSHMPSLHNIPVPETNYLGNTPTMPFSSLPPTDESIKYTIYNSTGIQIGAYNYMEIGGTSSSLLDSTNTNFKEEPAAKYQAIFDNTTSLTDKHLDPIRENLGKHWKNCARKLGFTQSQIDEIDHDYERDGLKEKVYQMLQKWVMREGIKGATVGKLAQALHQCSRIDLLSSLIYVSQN
# [36] = biological target: RPS6KA2 KD2 (human) (UniProt Q15349)
# [37] = biological target: STK24 (human) (UniProt Q9Y6E0)
# [38] = biological target: TAOK2 (human) (UniProt Q9UL54)
# [39] = biological target: TAOK3 (human) (UniProt Q9H2K8)
# [40] = biological target: TEK (human) (UniProt Q02763)
# [41] = biological target: WEE1 (human) (UniProt P30291)
# [42] = biological target: ZAP70 (human) (UniProt P43403)
# Chain of ACVR1 (human) (Q04771 whole entry, looked up): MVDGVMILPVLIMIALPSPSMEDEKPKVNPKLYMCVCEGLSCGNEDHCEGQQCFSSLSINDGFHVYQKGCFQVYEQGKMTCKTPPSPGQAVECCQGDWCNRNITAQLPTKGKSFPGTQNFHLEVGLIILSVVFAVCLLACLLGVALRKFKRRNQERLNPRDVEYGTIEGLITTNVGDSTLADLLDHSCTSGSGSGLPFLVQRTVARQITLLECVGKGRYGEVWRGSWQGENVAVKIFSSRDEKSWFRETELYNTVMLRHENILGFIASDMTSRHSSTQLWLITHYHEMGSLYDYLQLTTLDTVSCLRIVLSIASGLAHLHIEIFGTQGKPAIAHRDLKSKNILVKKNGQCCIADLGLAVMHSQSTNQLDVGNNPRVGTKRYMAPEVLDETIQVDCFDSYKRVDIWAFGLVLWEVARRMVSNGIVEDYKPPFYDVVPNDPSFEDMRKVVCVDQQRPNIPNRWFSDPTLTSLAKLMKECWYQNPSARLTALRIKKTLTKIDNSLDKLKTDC
smiles,measurement,setting,value
CN(C)C/C=C/C(=O)Nc1cccc(C(=O)Nc2ccc(Nc3nccc(-c4c(-c5ccccc5)nn5ccccc45)n3)cc2)c1,"kinase still bound, per cent of control",[1],3.8%
same,"kinase still bound, per cent of control",[2],8.4%
same,"kinase still bound, per cent of control",[3],80%
same,"kinase still bound, per cent of control",[4],5.9%
same,"kinase still bound, per cent of control",[5],100%
same,"kinase still bound, per cent of control",[6],6%
same,"kinase still bound, per cent of control",[7],3.1%
same,"kinase still bound, per cent of control",[8],39%
same,"kinase still bound, per cent of control",[9],1.2%
same,"kinase still bound, per cent of control",[10],94%
same,"kinase still bound, per cent of control",[11],97%
same,"kinase still bound, per cent of control",[12],1.6%
same,"kinase still bound, per cent of control",[13],76%
same,"kinase still bound, per cent of control",[14],10%
same,"kinase still bound, per cent of control",[15],54%
same,"kinase still bound, per cent of control",[16],11%
same,"kinase still bound, per cent of control",[17],32%
same,"kinase still bound, per cent of control",[18],23%
same,"kinase still bound, per cent of control",[19],100%
same,"kinase still bound, per cent of control",[20],100%
same,"kinase still bound, per cent of control",[21],94%
same,"kinase still bound, per cent of control",[22],96%
same,"kinase still bound, per cent of control",[23],100%
same,"kinase still bound, per cent of control",[24],100%
same,"kinase still bound, per cent of control",[25],100%
same,"kinase still bound, per cent of control",[26],84%
same,"kinase still bound, per cent of control",[27],84%
same,"kinase still bound, per cent of control",[28],86%
same,"kinase still bound, per cent of control",[29],92%
same,"kinase still bound, per cent of control",[30],99%
same,"kinase still bound, per cent of control",[31],100%
same,"kinase still bound, per cent of control",[32],15%
same,"kinase still bound, per cent of control",[33],90%
same,"kinase still bound, per cent of control",[34],8.3%
same,"kinase still bound, per cent of control",[35],73%
same,"kinase still bound, per cent of control",[36],82%
same,"kinase still bound, per cent of control",[37],88%
same,"kinase still bound, per cent of control",[38],31%
same,"kinase still bound, per cent of control",[39],42%
same,"kinase still bound, per cent of control",[40],67%
same,"kinase still bound, per cent of control",[41],100%
same,"kinase still bound, per cent of control",[42],96%
